Measurements from patent US7902238B2, “2-aminooxazolines as TAAR1 ligands” (Hoffmann-La Roche Inc., priority 2007, dated 2011).

Tests used:
[1] = target: mouse TAAR1 (Mus musculus, UniProt Q923Y8); experiment: Radioligand binding on membranes of HEK293 cells stably expressing mouse TAAR1
[2] = target: rat TAAR1 (Rattus norvegicus, UniProt Q923Y9); experiment: Radioligand binding on membranes of HEK293 cells stably expressing rat TAAR1
Chain of rat TAAR1 (Q923Y9 whole entry): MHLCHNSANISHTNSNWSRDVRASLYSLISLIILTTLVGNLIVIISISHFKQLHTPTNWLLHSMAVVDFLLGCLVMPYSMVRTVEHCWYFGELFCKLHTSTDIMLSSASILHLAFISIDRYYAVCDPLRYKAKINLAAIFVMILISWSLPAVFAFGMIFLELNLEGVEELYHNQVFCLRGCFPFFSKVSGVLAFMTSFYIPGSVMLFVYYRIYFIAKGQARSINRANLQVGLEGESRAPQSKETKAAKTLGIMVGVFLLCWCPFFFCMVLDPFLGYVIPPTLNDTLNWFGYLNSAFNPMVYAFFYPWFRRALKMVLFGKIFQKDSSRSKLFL

Chain of mouse TAAR1 (Q923Y8 whole entry): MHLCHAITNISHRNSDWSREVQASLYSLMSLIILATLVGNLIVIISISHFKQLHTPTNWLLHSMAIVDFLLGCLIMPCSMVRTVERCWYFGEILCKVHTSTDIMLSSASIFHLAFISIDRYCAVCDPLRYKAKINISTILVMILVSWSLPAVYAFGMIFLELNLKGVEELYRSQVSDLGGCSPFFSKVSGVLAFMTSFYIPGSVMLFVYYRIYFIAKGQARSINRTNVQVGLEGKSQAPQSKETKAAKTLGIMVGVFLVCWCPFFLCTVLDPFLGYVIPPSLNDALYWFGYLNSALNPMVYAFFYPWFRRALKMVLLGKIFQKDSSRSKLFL

Structure (SMILES) | Ki [1] [nM] | Ki [2] [nM]
CN(C[C@H]1COC(N)=N1)c1ccc(Cl)cc1F [Example 100, (S)-4-{[(4-Chloro-2-fluoro-phenyl)-methyl-amino]-methyl}-4,5-dihydro-oxazol-2-ylamine] | 2.7 | 3
CN(C[C@@H]1COC(N)=N1)c1ccc(Cl)c(Cl)c1 [Example 157, (R)-4-{[(3,4-Dichloro-phenyl)-methyl-amino]-methyl}-4,5-dihydro-oxazol-2-ylamine] | 1.7 | 2.1
CCN(C[C@H]1COC(N)=N1)c1cccc(Br)c1 [Example 37, (S)-4-{[(3-Bromo-phenyl)-ethyl-amino]-methyl}-4,5-dihydro-oxazol-2-ylamine] | 9.7 | 1.8
CN(C[C@H]1COC(N)=N1)c1ccc2ccccc2c1 [Example 77, (S)-4-[(Methyl-naphthalen-2-yl-amino)-methyl]-4,5-dihydro-oxazol-2-ylamine] | 0.4 | 
CCN(C[C@H]1COC(N)=N1)c1ccc(Br)cc1 [Example 32, (S)-4-{[(4-Bromo-phenyl)-ethyl-amino]-methyl}-4,5-dihydro-oxazol-2-ylamine] | 2.8 | 0.6
NC1=N[C@@H](CNc2ccccc2Cl)CO1 [Example 119, (S)-4-[(2-Chloro-phenylamino)-methyl]-4,5-dihydro-oxazol-2-ylamine] | 1.1 | 4.2
CCN(C[C@H]1COC(N)=N1)c1ccccc1 [Example 3, (S)-4-[(Ethyl-phenyl-amino)-methyl]-4,5-dihydro-oxazol-2-ylamine] | 1 | 1
NC1=N[C@@H](CNc2ccc(C(F)(F)F)c(F)c2)CO1 [Example 127, (S)-4-[(3-Fluoro-4-trifluoromethyl-phenylamino)-methyl]-4,5-dihydro-oxazol-2-ylamine] | 4.6 | 15.7
CCN(C[C@H]1COC(N)=N1)c1cccc(C)c1 [Example 65, (S)-4-[(Ethyl-m-tolyl-amino)-methyl]-4,5-dihydro-oxazol-2-ylamine] | 1.9 | 2.7
CN(C[C@@H]1COC(N)=N1)c1ccc(Cl)cc1 [Example 125, (R)-4-{[(4-Chloro-phenyl)-methyl-amino]-methyl}-4,5-dihydro-oxazol-2-ylamine] | 2.3 | 5.6
CCN(C[C@@H]1COC(N)=N1)c1ccc2ccccc2c1 [Example 163, (R)-4-[(Ethyl-naphthalen-2-yl-amino)-methyl]-4,5-dihydro-oxazol-2-ylamine] | 2.9 | 5.2
CCN(C[C@@H]1COC(N)=N1)c1ccc(F)c(OC)c1 [Example 139, (R)-4-{[Ethyl-(4-fluoro-3-methoxy-phenyl)-amino]-methyl}-4,5-dihydro-oxazol-2-ylamine] | 4.1 | 1.6
CCN(C[C@H]1COC(N)=N1)c1ccc(Cl)c(Cl)c1 [Example 33, (S)-4-{[(3,4-Dichloro-phenyl)-ethyl-amino]-methyl}-4,5-dihydro-oxazol-2-ylamine] | 2.2 | 0.2
CCN(C[C@H]1COC(N)=N1)c1ccc(C(F)(F)F)cc1C [Example 175, (S)-4-{[Ethyl-(2-methyl-4-trifluoromethyl-phenyl)-amino]-methyl}-4,5-dihydro-oxazol-2-ylamine] | 9.2 | 8.3
NC1=N[C@@H](CN(Cc2ccccc2)c2ccc(F)cc2)CO1 [Example 53, (S)-4-{[Benzyl-(4-fluoro-phenyl)-amino]-methyl}-4,5-dihydro-oxazol-2-ylamine] | 18.7 | 0.9
CCN(C[C@H]1COC(N)=N1)c1cc(Cl)cc(Cl)c1 [Example 165, (S)-4-{[(3,5-Dichloro-phenyl)-ethyl-amino]-methyl}-4,5-dihydro-oxazol-2-ylamine] | 1.4 | 0.9
NC1=N[C@@H](CNc2ccc(C(F)(F)F)cc2)CO1 [Example 132, (S)-4-[(4-Trifluoromethyl-phenylamino)-methyl]-4,5-dihydro-oxazol-2-ylamine] | 4.7 | 24.8
CC(C)N(C[C@H]1COC(N)=N1)c1ccc(Cl)c(Cl)c1 [Example 15, (S)-4-{[(3,4-Dichloro-phenyl)-isopropyl-amino]-methyl}-4,5-dihydro-oxazol-2-ylamine] | 22.4 | 0.8
NC1=N[C@@H](CNc2cccc(Cl)c2)CO1 [Example 87, (S)-4-[(3-Chloro-phenylamino)-methyl]-4,5-dihydro-oxazol-2-ylamine] |  | 7.3
CC(C)N(C[C@@H]1COC(N)=N1)c1ccc(Cl)c(Cl)c1 [Example 159, (R)-4-{[(3,4-Dichloro-phenyl)-isopropyl-amino]-methyl}-4,5-dihydro-oxazol-2-ylamine] | 5.3 | 1.4
CN(C[C@H]1COC(N)=N1)c1cc(Cl)cc(Cl)c1 [Example 160, (S)-4-{[(3,5-Dichloro-phenyl)-methyl-amino]-methyl}-4,5-dihydro-oxazol-2-ylamine] | 1.3 | 0.9
CCc1cccc(N(CC)C[C@H]2COC(N)=N2)c1 [Example 92, (S)-4-{[Ethyl-(3-ethyl-phenyl)-amino]-methyl}-4,5-dihydro-oxazol-2-ylamine] |  | 37000
CCN(C[C@@H]1COC(N)=N1)c1ccccc1 [Example 1, (R)-4-[(Ethyl-phenyl-amino)-methyl]-4,5-dihydro-oxazol-2-ylamine] | 0.9 | 1.9
CCN(C[C@H]1COC(N)=N1)c1ccccc1F [Example 107, (S)-4-{[Ethyl-(2-fluoro-phenyl)-amino]-methyl}-4,5-dihydro-oxazol-2-ylamine] | 3.9 | 14.9
COc1cc(N(C)C[C@@H]2COC(N)=N2)ccc1F [Example 138, (R)-4-{[(4-Fluoro-3-methoxy-phenyl)-methyl-amino]-methyl}-4,5-dihydro-oxazol-2-ylamine] | 4.4 | 9.3
COc1cc(N(Cc2ccccc2)C[C@H]2COC(N)=N2)ccc1F [Example 42, (S)-4-{[Benzyl-(4-fluoro-3-methoxy-phenyl)-amino]-methyl}-4,5-dihydro-oxazol-2-ylamine] | 26.4 | 1.1
CCN(C[C@H]1COC(N)=N1)c1ccc(Cl)cc1F [Example 95, (S)-4-{[(4-Chloro-2-fluoro-phenyl)-ethyl-amino]-methyl}-4,5-dihydro-oxazol-2-ylamine] |  | 1.5

Further compounds by falling Ki [2], results first:

Ki [1] [nM] | Ki [2] [nM] | Structure (SMILES)
 | 51000 | CCc1ccc(N(CC)C[C@H]2COC(N)=N2)cc1 [Example 94, (S)-4-{[Ethyl-(4-ethyl-phenyl)-amino]-methyl}-4,5-dihydro-oxazol-2-ylamine]
6 | 58.7 | CCN(C[C@H]1COC(N)=N1)c1ccccc1Cl [Example 111, (S)-4-{[(2-Chloro-phenyl)-ethyl-amino]-methyl}-4,5-dihydro-oxazol-2-ylamine]
7.7 | 15.5 | CN(C[C@@H]1COC(N)=N1)c1ccc2ccccc2c1 [Example 162, (R)-4-[(Methyl-naphthalen-2-yl-amino)-methyl]-4,5-dihydro-oxazol-2-ylamine]
2.8 | 6.2 | Cc1ccc(N(C)C[C@H]2COC(N)=N2)c(F)c1 [Example 113, (S)-4-{[(2-Fluoro-4-methyl-phenyl)-methyl-amino]-methyl}-4,5-dihydro-oxazol-2-ylamine]
8.2 | 4.8 | CCN(C[C@H]1COC(N)=N1)c1ccc(F)cc1F [Example 145, (S)-4-{[(2,4-Difluoro-phenyl)-ethyl-amino]-methyl}-4,5-dihydro-oxazol-2-ylamine]
1.2 | 4.7 | CN(C[C@H]1COC(N)=N1)c1cccc(Br)c1 [Example 34, (S)-4-{[(3-Bromo-phenyl)-methyl-amino]-methyl}-4,5-dihydro-oxazol-2-ylamine]
2.6 | 4.1 | COc1cc(N(C)C[C@@H]2COC(N)=N2)ccc1Cl [Example 140, (R)-4-{[(4-Chloro-3-methoxy-phenyl)-methyl-amino]-methyl}-4,5-dihydro-oxazol-2-ylamine]
6 | 3.2 | CCN(C[C@H]1COC(N)=N1)c1ccc2c(c1)CCC2 [Example 99, (S)-4-[(Ethyl-indan-5-yl-amino)-methyl]-4,5-dihydro-oxazol-2-ylamine]
1.1 | 2 | COc1cc(N(C)C[C@H]2COC(N)=N2)ccc1F [Example 40, (S)-4-{[(4-Fluoro-3-methoxy-phenyl)-methyl-amino]-methyl}-4,5-dihydro-oxazol-2-ylamine]
1.3 | 1.9 | CN(C[C@H]1COC(N)=N1)c1ccc(Br)cc1 [Example 31, (S)-4-{[(4-Bromo-phenyl)-methyl-amino]-methyl}-4,5-dihydro-oxazol-2-ylamine]
2.5 | 1.7 | CCN(C[C@H]1COC(N)=N1)c1cc(F)cc(C(F)(F)F)c1 [Example 109, (S)-4-{[Ethyl-(3-fluoro-5-trifluoromethyl-phenyl)-amino]-methyl}-4,5-dihydro-oxazol-2-ylamine]
1.6 | 1.2 | CCN(C[C@@H]1COC(N)=N1)c1ccc(Cl)cc1 [Example 126, (R)-4-{[(4-Chloro-phenyl)-ethyl-amino]-methyl}-4,5-dihydro-oxazol-2-ylamine]
 | 1 | CCN(C[C@H]1COC(N)=N1)c1cccc(Cl)c1 [Example 83, (S)-4-{[(3-Chloro-phenyl)-ethyl-amino]-methyl}-4,5-dihydro-oxazol-2-ylamine]
28.8 | 0.6 | NC1=N[C@@H](CN(Cc2ccccc2)c2ccc(Cl)cc2)CO1 [Example 55, (S)-4-[{Benzyl-(4-chloro-phenyl)-amino]-methyl}-4,5-dihydro-oxazol-2-ylamine]
2.2 | 0.4 | CCN(C[C@@H]1COC(N)=N1)c1ccc(Cl)c(Cl)c1 [Example 158, (R)-4-{[(3,4-Dichloro-phenyl)-ethyl-amino]-methyl}-4,5-dihydro-oxazol-2-ylamine]
